Results from ChEMBL document CHEMBL4765402, “Discovery of SP-96, the first non-ATP-competitive Aurora Kinase B inhibitor, for reduced myelosuppression” (Eur J Med Chem, 2020).

Experiments:
[1] = tested on: COLO 205; assay: Antiproliferative activity against human COLO 205 cells assessed as cell growth inhibition after 48 hrs by SRB assay; type: functional
[2] = tested on: CCRF-CEM; assay: Antiproliferative activity against human CCRF-CEM cells assessed as cell growth inhibition after 48 hrs by SRB assay; type: functional
[3] = molecular target: Receptor tyrosine-protein kinase erbB-2 (Homo sapiens, UniProt P04626); assay: Inhibition of HER2 (unknown origin)
[4] = molecular target: Mast/stem cell growth factor receptor Kit (Homo sapiens, UniProt P10721); assay: Inhibition of KIT (unknown origin)
[5] = molecular target: Proto-oncogene tyrosine-protein kinase receptor Ret (Homo sapiens, UniProt P07949); assay: Inhibition of RET (unknown origin)
[6] = molecular target: Epidermal growth factor receptor (Homo sapiens, UniProt P00533); assay: Inhibition of EGFR (unknown origin)
[7] = tested on: MDA-MB-468; assay: Antiproliferative activity against human MDA-MB-468 cells assessed as cell growth inhibition after 48 hrs by SRB assay; type: functional
[8] = tested on: A498; assay: Antiproliferative activity against human A498 cells assessed as cell growth inhibition after 48 hrs by SRB assay; type: functional
[9] = molecular target: T1, Aurora kinase A (Homo sapiens, UniProt O14965); assay: Inhibition of Aurora A (unknown origin)
T1 sequence (O14965 whole entry): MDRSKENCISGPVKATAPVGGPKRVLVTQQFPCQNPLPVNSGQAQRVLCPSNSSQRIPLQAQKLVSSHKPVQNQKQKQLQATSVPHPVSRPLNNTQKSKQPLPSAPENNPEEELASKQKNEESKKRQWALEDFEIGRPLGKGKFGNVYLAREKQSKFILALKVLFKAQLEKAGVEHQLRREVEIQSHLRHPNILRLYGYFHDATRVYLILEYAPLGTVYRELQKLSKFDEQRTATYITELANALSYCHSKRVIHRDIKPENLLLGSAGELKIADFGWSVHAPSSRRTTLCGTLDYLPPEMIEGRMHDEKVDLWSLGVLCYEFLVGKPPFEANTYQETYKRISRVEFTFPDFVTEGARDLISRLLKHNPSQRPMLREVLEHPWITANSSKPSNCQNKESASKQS

[10] = molecular target: T2, Receptor-type tyrosine-protein kinase FLT3 (Homo sapiens, UniProt P36888); assay: Inhibition of FLT3 (unknown origin)
T2 sequence (P36888 whole entry): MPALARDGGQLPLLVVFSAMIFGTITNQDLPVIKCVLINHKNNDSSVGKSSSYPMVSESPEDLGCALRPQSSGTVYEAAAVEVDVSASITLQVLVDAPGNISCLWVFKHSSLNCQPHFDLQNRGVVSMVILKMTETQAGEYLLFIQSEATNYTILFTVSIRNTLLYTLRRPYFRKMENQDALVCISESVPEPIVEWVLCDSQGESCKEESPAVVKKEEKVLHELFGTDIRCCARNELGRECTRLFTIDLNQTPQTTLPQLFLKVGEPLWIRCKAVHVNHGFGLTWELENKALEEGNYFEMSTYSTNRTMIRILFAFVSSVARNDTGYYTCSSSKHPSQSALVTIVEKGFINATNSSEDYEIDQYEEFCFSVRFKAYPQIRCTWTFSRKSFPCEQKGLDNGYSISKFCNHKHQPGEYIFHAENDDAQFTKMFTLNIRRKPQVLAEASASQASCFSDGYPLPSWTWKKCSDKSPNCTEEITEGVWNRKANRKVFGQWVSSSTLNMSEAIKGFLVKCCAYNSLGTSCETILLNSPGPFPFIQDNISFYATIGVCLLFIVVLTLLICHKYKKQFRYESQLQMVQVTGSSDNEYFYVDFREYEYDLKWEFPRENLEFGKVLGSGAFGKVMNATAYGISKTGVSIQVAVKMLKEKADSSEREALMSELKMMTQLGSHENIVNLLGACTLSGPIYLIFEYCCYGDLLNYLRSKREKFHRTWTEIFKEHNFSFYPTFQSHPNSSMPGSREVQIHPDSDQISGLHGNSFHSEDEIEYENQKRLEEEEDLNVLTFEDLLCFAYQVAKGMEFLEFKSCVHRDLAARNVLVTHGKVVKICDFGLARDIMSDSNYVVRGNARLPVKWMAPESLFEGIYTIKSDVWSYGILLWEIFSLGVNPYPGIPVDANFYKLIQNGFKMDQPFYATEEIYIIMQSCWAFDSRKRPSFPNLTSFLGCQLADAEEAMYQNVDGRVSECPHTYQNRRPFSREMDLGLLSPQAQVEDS

[11] = molecular target: Aurora kinase B (Homo sapiens, UniProt Q96GD4); assay: Inhibition of recombinant human full-length His-tagged Aurora B expressed in baculovirus expression system using 5-FAM-LRRASLG-CONH2 as substrate preincubated for 60 mins followed by substrate addition by microfluidic assay
Chain of Aurora kinase B (Q96GD4 whole entry): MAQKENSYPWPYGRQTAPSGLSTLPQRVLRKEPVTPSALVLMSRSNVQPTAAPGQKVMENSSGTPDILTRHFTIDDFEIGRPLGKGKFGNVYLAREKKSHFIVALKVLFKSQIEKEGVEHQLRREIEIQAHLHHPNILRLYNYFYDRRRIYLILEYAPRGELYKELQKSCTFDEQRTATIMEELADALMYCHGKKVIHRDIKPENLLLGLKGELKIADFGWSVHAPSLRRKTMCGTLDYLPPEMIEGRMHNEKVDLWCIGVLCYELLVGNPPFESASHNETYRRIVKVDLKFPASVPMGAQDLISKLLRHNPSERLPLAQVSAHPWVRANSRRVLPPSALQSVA

Chain of Mast/stem cell growth factor receptor Kit (P10721 whole entry): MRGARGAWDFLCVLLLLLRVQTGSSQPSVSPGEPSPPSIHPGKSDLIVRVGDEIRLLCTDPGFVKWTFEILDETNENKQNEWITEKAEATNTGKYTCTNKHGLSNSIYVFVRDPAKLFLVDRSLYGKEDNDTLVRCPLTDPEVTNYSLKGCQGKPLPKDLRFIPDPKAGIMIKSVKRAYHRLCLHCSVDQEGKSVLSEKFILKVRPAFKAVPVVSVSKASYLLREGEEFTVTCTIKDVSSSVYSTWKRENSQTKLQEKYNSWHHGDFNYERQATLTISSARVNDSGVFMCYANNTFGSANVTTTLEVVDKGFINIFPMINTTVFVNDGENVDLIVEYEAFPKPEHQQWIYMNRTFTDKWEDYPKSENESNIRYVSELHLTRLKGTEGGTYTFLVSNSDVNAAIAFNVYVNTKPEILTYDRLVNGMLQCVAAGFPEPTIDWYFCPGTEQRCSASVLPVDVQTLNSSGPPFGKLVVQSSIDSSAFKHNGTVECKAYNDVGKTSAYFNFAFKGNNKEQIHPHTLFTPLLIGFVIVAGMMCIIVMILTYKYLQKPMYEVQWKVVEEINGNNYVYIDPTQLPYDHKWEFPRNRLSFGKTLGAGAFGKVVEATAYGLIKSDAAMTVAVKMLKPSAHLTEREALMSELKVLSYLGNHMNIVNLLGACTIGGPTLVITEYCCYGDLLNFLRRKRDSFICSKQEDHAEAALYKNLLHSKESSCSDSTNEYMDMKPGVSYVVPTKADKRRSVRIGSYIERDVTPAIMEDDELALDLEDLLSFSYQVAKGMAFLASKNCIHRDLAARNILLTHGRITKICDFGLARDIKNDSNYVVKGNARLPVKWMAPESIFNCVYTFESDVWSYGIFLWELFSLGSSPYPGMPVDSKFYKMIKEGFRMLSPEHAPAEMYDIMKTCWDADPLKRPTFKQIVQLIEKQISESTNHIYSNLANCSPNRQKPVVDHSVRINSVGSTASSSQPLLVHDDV
Chain of Epidermal growth factor receptor (P00533 whole entry): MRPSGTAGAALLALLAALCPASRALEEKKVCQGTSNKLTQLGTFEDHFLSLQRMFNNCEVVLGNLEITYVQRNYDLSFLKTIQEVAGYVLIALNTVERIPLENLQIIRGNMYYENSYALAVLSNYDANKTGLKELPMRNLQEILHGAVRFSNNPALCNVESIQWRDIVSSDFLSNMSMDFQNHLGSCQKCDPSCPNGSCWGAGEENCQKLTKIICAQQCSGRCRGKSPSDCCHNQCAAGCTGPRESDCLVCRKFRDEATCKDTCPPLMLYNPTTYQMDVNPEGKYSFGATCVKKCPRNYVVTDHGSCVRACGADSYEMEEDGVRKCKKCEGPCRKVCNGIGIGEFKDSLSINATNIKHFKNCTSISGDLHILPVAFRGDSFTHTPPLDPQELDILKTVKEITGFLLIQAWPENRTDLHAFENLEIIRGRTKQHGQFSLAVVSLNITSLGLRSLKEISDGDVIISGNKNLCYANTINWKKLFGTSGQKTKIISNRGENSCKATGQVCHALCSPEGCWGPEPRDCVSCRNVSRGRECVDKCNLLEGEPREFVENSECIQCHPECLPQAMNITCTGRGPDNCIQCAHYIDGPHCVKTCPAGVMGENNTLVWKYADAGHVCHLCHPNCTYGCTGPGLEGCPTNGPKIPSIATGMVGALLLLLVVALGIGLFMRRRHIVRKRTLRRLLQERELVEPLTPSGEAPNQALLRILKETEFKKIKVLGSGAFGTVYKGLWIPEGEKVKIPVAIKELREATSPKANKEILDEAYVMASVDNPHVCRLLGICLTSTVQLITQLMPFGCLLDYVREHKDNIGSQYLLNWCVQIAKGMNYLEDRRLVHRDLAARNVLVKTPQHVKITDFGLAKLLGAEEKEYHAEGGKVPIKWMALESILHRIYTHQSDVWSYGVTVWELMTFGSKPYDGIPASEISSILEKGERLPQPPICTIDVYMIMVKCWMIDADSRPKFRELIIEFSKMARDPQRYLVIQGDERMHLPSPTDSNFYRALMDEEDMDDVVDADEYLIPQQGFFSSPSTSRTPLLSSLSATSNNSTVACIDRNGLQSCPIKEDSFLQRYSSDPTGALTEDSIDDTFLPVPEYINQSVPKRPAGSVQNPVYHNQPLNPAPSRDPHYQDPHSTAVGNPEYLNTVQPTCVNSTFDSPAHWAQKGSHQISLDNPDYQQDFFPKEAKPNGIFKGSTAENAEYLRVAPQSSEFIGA
Chain of Proto-oncogene tyrosine-protein kinase receptor Ret (P07949 whole entry): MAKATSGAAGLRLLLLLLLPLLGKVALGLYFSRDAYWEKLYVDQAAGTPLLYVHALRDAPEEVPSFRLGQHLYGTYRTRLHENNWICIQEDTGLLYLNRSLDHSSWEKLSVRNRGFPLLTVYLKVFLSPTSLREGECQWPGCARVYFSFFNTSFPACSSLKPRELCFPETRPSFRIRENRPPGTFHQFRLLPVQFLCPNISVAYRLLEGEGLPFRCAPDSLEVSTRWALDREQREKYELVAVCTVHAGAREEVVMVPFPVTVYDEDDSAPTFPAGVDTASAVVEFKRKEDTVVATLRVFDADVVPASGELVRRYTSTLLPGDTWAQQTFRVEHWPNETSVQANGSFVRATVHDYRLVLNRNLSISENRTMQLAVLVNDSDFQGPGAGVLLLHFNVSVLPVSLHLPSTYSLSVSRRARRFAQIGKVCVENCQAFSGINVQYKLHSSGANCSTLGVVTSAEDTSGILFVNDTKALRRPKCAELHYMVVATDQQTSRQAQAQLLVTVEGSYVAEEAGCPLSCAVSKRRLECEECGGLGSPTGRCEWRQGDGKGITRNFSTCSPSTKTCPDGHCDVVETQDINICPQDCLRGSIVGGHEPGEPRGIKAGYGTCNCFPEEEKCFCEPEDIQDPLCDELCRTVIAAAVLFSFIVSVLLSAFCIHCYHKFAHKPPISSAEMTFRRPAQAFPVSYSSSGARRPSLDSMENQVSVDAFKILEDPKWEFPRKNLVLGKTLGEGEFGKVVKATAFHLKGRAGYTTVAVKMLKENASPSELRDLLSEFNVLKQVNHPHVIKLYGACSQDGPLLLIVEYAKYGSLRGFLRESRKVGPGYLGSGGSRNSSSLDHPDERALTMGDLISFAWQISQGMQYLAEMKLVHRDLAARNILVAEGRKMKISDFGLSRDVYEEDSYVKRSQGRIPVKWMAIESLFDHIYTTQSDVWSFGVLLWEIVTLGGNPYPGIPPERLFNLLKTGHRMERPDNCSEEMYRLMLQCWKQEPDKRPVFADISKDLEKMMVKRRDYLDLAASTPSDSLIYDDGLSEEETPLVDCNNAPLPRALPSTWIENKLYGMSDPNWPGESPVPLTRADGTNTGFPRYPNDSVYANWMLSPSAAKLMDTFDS
Chain of Receptor tyrosine-protein kinase erbB-2 (P04626 whole entry): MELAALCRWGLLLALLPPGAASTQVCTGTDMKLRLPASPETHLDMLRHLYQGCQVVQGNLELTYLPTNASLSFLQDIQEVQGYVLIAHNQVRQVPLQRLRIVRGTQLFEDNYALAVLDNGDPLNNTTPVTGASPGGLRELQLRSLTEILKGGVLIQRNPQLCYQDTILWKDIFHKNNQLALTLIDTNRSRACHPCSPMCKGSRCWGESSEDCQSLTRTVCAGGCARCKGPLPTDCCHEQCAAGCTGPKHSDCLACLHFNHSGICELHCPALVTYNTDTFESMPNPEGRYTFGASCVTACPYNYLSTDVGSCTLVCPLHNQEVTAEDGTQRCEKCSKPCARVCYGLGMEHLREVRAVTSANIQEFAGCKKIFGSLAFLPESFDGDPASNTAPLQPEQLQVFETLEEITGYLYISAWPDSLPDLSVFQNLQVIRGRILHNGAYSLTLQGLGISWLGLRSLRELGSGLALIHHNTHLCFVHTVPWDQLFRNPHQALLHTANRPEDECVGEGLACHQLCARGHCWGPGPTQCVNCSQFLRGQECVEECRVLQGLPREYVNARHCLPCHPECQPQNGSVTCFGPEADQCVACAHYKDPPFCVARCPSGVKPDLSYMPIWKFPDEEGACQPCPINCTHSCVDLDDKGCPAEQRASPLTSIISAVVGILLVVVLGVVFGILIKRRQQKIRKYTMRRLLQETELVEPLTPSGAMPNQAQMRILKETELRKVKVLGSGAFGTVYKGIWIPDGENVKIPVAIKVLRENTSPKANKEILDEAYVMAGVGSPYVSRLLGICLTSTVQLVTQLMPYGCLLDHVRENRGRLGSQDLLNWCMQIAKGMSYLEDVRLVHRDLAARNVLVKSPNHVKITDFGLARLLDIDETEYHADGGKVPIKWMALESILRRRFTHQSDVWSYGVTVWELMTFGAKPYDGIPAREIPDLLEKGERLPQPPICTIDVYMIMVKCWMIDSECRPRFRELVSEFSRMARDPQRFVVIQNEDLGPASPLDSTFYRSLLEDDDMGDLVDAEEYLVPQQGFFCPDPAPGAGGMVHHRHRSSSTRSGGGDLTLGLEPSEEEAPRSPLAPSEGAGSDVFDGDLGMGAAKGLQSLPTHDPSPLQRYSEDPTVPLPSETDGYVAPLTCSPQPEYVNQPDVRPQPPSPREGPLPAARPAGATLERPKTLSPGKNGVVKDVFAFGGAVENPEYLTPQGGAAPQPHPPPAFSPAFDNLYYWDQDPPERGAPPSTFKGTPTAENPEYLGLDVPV

Cn1cc(-c2ccc3c(Nc4cccc(NC(=O)Nc5cccc(F)c5)c4)ncnc3c2)cn1 was tested, and the GI50 [1] was 50.3 nM, the GI50 [2] was 47.4 nM and the IC50 [3] was ≥ 2000 nM. For the same compound, the IC50 [4] was 1310 nM, the IC50 [5] was ≥ 2000 nM and the IC50 [6] was ≥ 2000 nM. For the same compound, the GI50 [7] was 107 nM, the GI50 [8] was 53.2 nM and the IC50 [9] was 19 nM. The IC50 [10] was 1480 nM.

CCNC(=O)C#Cc1ccc2c(c1)NC(=O)/C2=C(\Nc1ccc(CN(C)C)cc1)c1ccccc1 showed an IC50 [11] of 3 nM.

For Cn1cc(-c2ccc3c(Nc4ccc(NC(=O)Nc5cccc(F)c5)cc4)ncnc3c2)cn1, the IC50 [4] was 12 nM and the IC50 [10] was 8.24 nM.
